These results are taken from paper PMC11944037, “Investigating the Mechanism of Action of Ipomoea pes-caprae in the Treatment of Rheumatoid Arthritis Based on Serum Metabolomics and Network Pharmacology” (Marine Drugs, 2025).

Like-named read-outs stand apart in the source and are kept apart here.

In data set [1] the test system is RA-FLS. Set-up: method as in PMID 28463788. The conditions noted are these: by blocking phosphorylation of IκB and IκB kinases; cited from earlier work.
A short description of data set [2]: Pharmacokinetics of absorbed components of IPE in plasma. In kind it is in vivo, SD rats. The settings on record: component of orally given IPE, n = 6; for MRT last: read-out: MRT0~t. From the text:
(Haodan Science and Technology Park, No.99 Changchong Road, Longping High-tech Park, Furong District, Changsha City, China), Animal License No. SCXK (Hunan) 2019-0004. The animal experiments were approved by the Animal Ethics Committee of Guangxi University of Chinese Medicine (Approval No. DW20220220-117). After one week of adaptive feeding, the animals were randomly divided into eight groups of 10 animals according to weight stratification: normal control group (Con), natural bovine type II collagen model group (CII), wind-dampness cold bi-syndrome model group (WCM), wind-dampness heat bi-syndrome model group (WHM), wind-dampness cold bi-syndrome + Ipomoea […] group ([…]), wind-dampness heat bi-syndrome + Ipomoea […] group ([…]), wind-dampness cold bi-syndrome + Duhuo group (WCM + DH) (Duhuo formula granules), and wind-dampness heat bi-syndrome + Fangji group (WHM + FJ) (Fangji formula granules). […] The oral dose of IPE was 13.5 g/kg, and the dosing volume was 20 mL/kg. The oral doses of Duhuo formula granules and Fangji formula granules were 9.0 g/kg, with a dosing volume of 20 mL/kg for each. The blank control group and each model group were administered an equal volume of distilled water by oral gavage. […] The supernatant was transferred to a new centrifuge tube and stored in a refrigerator at -80 °C for the detection of absorbed components in plasma and pharmacokinetics. In addition, after the end of the entire experimental cycle, blood was taken from the abdominal aorta of the rat. The blood samples were kept at room temperature for 2 h, then centrifuged at 4 °C at 3000 rpm for 10 min, and the upper serum was aspirated. The samples were stored at -80 °C in a low-temperature refrigerator for TNF-α, IL-6 detection, and metabolomics detection. In order to further elaborate on the in vivo pharmacokinetic characteristics of IPE, this study selected caffeic acid, protocatechuic acid, and ferulic acid as the research objects to explore their in vivo absorption and metabolism characteristics. In addition, syringic acid was chosen as the internal standard. […] Use A as 0.1% acetic acid aqueous solution (A) acetonitrile (B) as the mobile phase, with gradient elution (0-6 min, 5-20% B; 6-10 min, 20-40% B), a volume flow of 0.4 mL/min, a column temperature of 40 °C, and an injection volume of 3 μL. Ion source: electrospray ion source (ESI), negative ion mode collection, simultaneous measurement by multiple reaction monitoring (MRM) mode.

Data set [3] is described as follows: Identification and relative content of absorbed components of IPE in plasma (UPLC-MS). In kind it is in vivo, SD rats. The conditions noted are these: oral IPE 13.5 g/kg, peak area normalization. From the text: A total of 83 male SD rats, SPF grade, six weeks old, body mass (200 ± 10 g), were purchased from Hunan SJA Laboratory Animal Co., Ltd. (Haodan Science and Technology Park, No.99 Changchong Road, Longping High-tech Park, Furong District, Changsha City, China), Animal License No. SCXK (Hunan) 2019-0004. The animal experiments were approved by the Animal Ethics Committee of Guangxi University of Chinese Medicine (Approval No. DW20220220-117). After one week of adaptive feeding, the animals were randomly divided into eight groups of 10 animals according to weight stratification: normal control group (Con), natural bovine type II collagen model group (CII), wind-dampness cold bi-syndrome model group (WCM), wind-dampness heat bi-syndrome model group (WHM), wind-dampness cold bi-syndrome + Ipomoea pes-caprae group (WCM + IPE), wind-dampness heat bi-syndrome + Ipomoea pes-caprae group (WHM + IPE), wind-dampness cold bi-syndrome + Duhuo group (WCM + DH) (Duhuo formula granules), and wind-dampness heat bi-syndrome + Fangji group (WHM + FJ) (Fangji formula granules). Another three rats were randomly selected as the normal administration group (Con + IPE), and the absorbed components in plasma were studied in vivo. The oral dose of IPE was 13.5 g/kg, and the dosing volume was 20 mL/kg. The oral doses of Duhuo formula granules and Fangji formula granules were 9.0 g/kg, with a dosing volume of 20 mL/kg for each. The blank control group and each model group were administered an equal volume of distilled water by oral gavage. The administration was performed once daily for 28 consecutive days.
Rats were fasted for 12 h before administration but not deprived of water, then weighed and administered. A total of 0.2 mL of blood was collected from the orbit at 5 min, 30 min, 45 min, 1 h, 2 h, 4 h, 6 h, 8 h, and 12 h after the end of gavage administration and placed in a centrifuge tube with a preservative anticoagulant (1.5% EDTA aqueous solution, 1.5 mL). The samples were centrifuged at 4 °C for 10 min at 4000 rpm to separate the plasma. The supernatant was transferred to a new centrifuge tube and stored in a refrigerator at −80 °C for the detection of absorbed components in plasma and pharmacokinetics. In addition, after the end of the entire experimental cycle, blood was taken from the abdominal aorta of the rat. The blood samples were kept at room temperature for 2 h, then centrifuged at 4 °C at 3000 rpm for 10 min, and the upper serum was aspirated. The samples were stored at −80 °C in a low-temperature refrigerator for TNF-α, IL-6 detection, and metabolomics detection.
Ultra-high liquid chromatograph (model: ExionLC AC, manufacturer: SCIEX Corporation, USA) and QTOF mass spectrometer (model: X500R, manufacturer: SCIEX Corporation, USA), Waters ACQUITY UPLC HSS T3 C18 column (1.8 μm, 2.1 × 100 mm) was used as the mobile phase for the separation of 0.1% formic acid aqueous solution (A)-acetonitrile (B) as a mobile phase, gradient elution (0~30 min, 5%~95% B); volume flow rate of 0.4 mL/min; injection volume: 3 μL, column temperature: 40 °C. Ion source: dual-spray TurboV, positive and negative ion scanning, TOF MS scanning range of m/z 100~1500, positive/negative ion source voltage of […], ion source temperature: 600 °C, GS1: 55 psi, GS2: 55 psi, air curtain gas pressure: 35 psi, parent ion collision energy: ±10 V, de-cluster voltage (DP): ±80 V, daughter ion collision energy (CE): ±35 V.
Expressed as mean ± standard deviation ( x¯ ± s) and processed by GraphPad Prism 8.4.3 statistical software, statistical comparisons were evaluated by one-way ANOVA, followed by the Student–Newman–Keuls post hoc test. The difference was statistically significant with p < 0.05 and p < 0.01. […]

Data set [4] deals with LTB4. Set-up: method as in PMID 27826169. The conditions noted are these: cited from earlier work.
Data set [5] has as its system JAK/STAT pathway. The conditions noted are these: modulating CRP, RF, TNF-α, TGF-β levels; cited from earlier work.
Data set [6] concerns NF-κB and Akt/mTOR signaling pathways. Set-up: method as in PMID 32510258. The settings on record: cited from earlier work.
Data set [7] concerns tyrosine kinases on fibroblast-like synoviocytes (FLS). The conditions noted are these: cited from earlier work.
Setting [8] is: male, SD, rat, plasma, po, 13.5 g/kg, Con + IPE group.
[9] abbreviates: male, SD, rat, plasma, po, 13.5 g/kg, Con + IPE group, read-out: Tmax.
Where [10] appears, read: male, SD, rat, plasma, po, 13.5 g/kg, WCM + IPE group.
Setting [11] is: male, SD, rat, plasma, po, 13.5 g/kg, WCM + IPE group, read-out: Tmax.
Setting [12] is: male, SD, rat, plasma, po, 13.5 g/kg, WHM + IPE group.
[13] abbreviates: male, SD, rat, plasma, po, 13.5 g/kg, WHM + IPE group, read-out: Tmax.

Take `O=C(O)/C=C/c1ccc(O)c(O)c1` [Caffeic acid]: the “IL-6 and TNF-α, inflammatory response in RA-FLS” value in data set [1] is “inhibits IL-6 and TNF-α”. The AUC(0-t) – broadly, the area under the concentration-time curve up to a stated or last time point – in data set [2] (setting [8]) came out at 2080 ± 349 ng·h/mL; in data set [2] (setting [10]), 1130 ± 163 ng·h/mL; in data set [2] (setting [12]), 2300 ± 410 ng·h/mL. The Cmax – broadly, the peak of the concentration-time curve – in data set [2] (setting [8]) was determined as 703 ± 190 ng/mL; in data set [2] (setting [10]) it was 342 ± 123 ng/mL; in data set [2] (setting [12]), 709 ± 194 ng/mL. The figures for the half-life in data set [2] (setting [8]), in data set [2] (setting [10]) and in data set [2] (setting [12]) were 4.51 ± 3.03 h, 2.82 ± 1.07 h and 3.82 ± 2.55 h, respectively. For the same compound, the values for the MRT last in data set [2] (setting [8]), in data set [2] (setting [10]) and in data set [2] (setting [12]) were 4.18 ± 1.82 h, 3.32 ± 0.35 h and 4.53 ± 1.34 h, respectively. In addition, the Tmax (commonly the time from dosing to the highest level) in data set [2] (setting [9]) was 0.85 ± 0.22 h; in data set [2] (setting [11]) it was 0.62 ± 0.14 h; in data set [2] (setting [13]), 0.93 ± 0.12 h. Also, the “Relative Content of absorbed component in plasma” value (“Relative Content” for short) in data set [3] (Con + IPE group (normal rats)) is 33.04%; in data set [3] (WCM + IPE group) it was 30.2%; in data set [3] (WHM + IPE group), 34.24%.
`O=c1ccc2ccccc2o1` [Coumarin]: in data set [3] (WCM + IPE group), the “Relative Content” value worked out at 1.77%.
With `O=c1ccc2cc(O)c(O)cc2o1` [Esculetine], the LTB4 levels entry in data set [4] is “decreasing LTB4 levels”. In addition, the figures for the “Relative Content” value in data set [3] (Con + IPE group (normal rats)), in data set [3] (WCM + IPE group) and in data set [3] (WHM + IPE group) were 0.39%, 0.5% and 0.58%, respectively.
Take `COc1cc(/C=C/C(=O)O)ccc1O` [Ferulic acid]: the “JAK/STAT pathway-mediated RA” value in data set [5] is “inhibits JAK/STAT pathway-mediated RA”. The Tmax in data set [2] (WCM + IPE group) was 0.33 ± 0.12 h; in data set [2] (setting [9]) it was 0.45 ± 0.1 h; in data set [2] (setting [13]), 0.7 ± 0.27 h. For the same compound, the values for the AUC(0-t) in data set [2] (setting [8]), in data set [2] (setting [10]) and in data set [2] (setting [12]) were 60.6 ± 27.3 ng·h/mL, 34.9 ± 22.6 ng·h/mL and 104 ± 41.2 ng·h/mL, respectively. Besides, the Cmax in data set [2] (setting [8]) was 35.8 ± 10.9 ng/mL; in data set [2] (setting [10]) it was 26.1 ± 11.6 ng/mL; in data set [2] (setting [12]), 38.8 ± 16.2 ng/mL. The values for the half-life in data set [2] (setting [8]), in data set [2] (setting [10]) and in data set [2] (setting [12]) were 1.51 ± 0.51 h, 1.02 ± 0.46 h and 1.31 ± 0.32 h, respectively. Besides, the MRT last was determined as 1.3 ± 0.28 h in data set [2] (setting [8]), 1.05 ± 0.35 h in data set [2] (setting [10]) and 2.27 ± 0.42 h in data set [2] (setting [12]). Moreover, the “Relative Content” value was 17.23% in data set [3] (Con + IPE group (normal rats)), 20.09% in data set [3] (WCM + IPE group) and 17.71% in data set [3] (WHM + IPE group).
As to `COc1cc2oc(=O)ccc2cc1O` [Isoscopoletin], the “Relative Content” value was 2.7% in data set [3] (Con + IPE group (normal rats)), 7.8% in data set [3] (WCM + IPE group) and 5% in data set [3] (WHM + IPE group).
On the same counts, the results for `COC(=O)/C=C/c1ccc(O)c(O)c1` [Methyl caffeate acid] are 1.57%, 2.45% and 2.02%.
For the compound `O=C(O)c1ccc(O)c(O)c1` [Protocatechuic acid], the AUC(0-t) in data set [2] (setting [8]) came out at 504 ± 177 ng·h/mL; in data set [2] (setting [10]) it was 194 ± 100 ng·h/mL; in data set [2] (setting [12]) it was 307 ± 98.3 ng·h/mL. Besides, the Cmax in data set [2] (setting [8]) was 269 ± 90.2 ng/mL; in data set [2] (setting [10]), 121 ± 77.4 ng/mL; in data set [2] (setting [12]), 145 ± 53.2 ng/mL. Besides, the values for the half-life in data set [2] (setting [8]), in data set [2] (setting [10]) and in data set [2] (setting [12]) were 1.93 ± 1.01 h, 1.46 ± 0.32 h and 1.25 ± 0.36 h, respectively. Also, the values for the MRT last in data set [2] (setting [8]), in data set [2] (setting [10]) and in data set [2] (setting [12]) were 1.9 ± 0.42 h, 1.59 ± 0.38 h and 1.83 ± 0.24 h, respectively. Besides, the values for the Tmax in data set [2] (setting [9]), in data set [2] (setting [11]) and in data set [2] (setting [13]) were 0.66 ± 0.25 h, 0.41 ± 0.12 h and 0.62 ± 0.14 h, respectively. Besides, in data set [6], the “secretion of MMP-3, MMP-13, TNF-α, IL-1β, and IL-6” value is reported as “inhibits the secretion”. Moreover, the “Relative Content” value in data set [3] (Con + IPE group (normal rats)) is 1.04%; in data set [3] (WCM + IPE group), 1.14%; in data set [3] (WHM + IPE group), 0.84%.
Regarding `O=Cc1ccc(O)c(O)c1` [Protocatechuic aldehyde], the “Relative Content” value in data set [3] (WCM + IPE group) is 1.68%.
Turning to `COc1cc2ccc(=O)oc2cc1O` [Scopoletin], the figures for the “Relative Content” value in data set [3] (Con + IPE group (normal rats)), in data set [3] (WCM + IPE group) and in data set [3] (WHM + IPE group) were 5.83%, 4.71% and 5.56%, respectively. Further, in data set [7], the “NF-κB signaling in fibroblast-like synoviocytes” value was “block NF-κB signaling”.
As to `O=C(O)c1ccc(O)cc1` [p-Hydroxybenzoic acid], the “Relative Content” value in data set [3] (Con + IPE group (normal rats)) worked out at 38.2%; in data set [3] (WCM + IPE group) it was 29.65%; in data set [3] (WHM + IPE group), 34.04%.
